Source: US6737383B1, “Herbicidal oxadiazolidines” (priority 1999, dated 2004)

Legend:
rice = assay: Test B flood test rice; assay type: in vivo, Oryza sativa
How it was run: (§1)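 Read-out is a visual response score from 0 (no effect) to 10 (complete control), assigned by comparison with untreated controls. Treatment was applied at the 2-leaf stage, and plants stayed in the greenhouse for twelve to sixteen days before scoring.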

blackgrass = assay: Test B pre/postemergence blackgrass; assay type: in vivo, Alopecurus myosuroides
How it was run: (§2)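 Herbicidal effect was estimated by eye on a ten-point control scale after plants spent twelve to sixteen days in a greenhouse following soil or foliar treatment. Foliar sprays targeted plants at one to four leaves; all doses were formulated in a non-phytotoxic solvent with surfactant.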

bedstraw = assay: Test B pre/postemergence bedstraw; assay type: in vivo, Galium aparine
How it was run: as §2

wild oat = assay: Test B pre/postemergence wild oat; assay type: in vivo, Avena fatua
How it was run: as §2

sugar beet = assay: Test B pre/postemergence sugar beet; assay type: in vivo, Beta vulgaris
How it was run: as §2

velvetleaf = assay: Test B pre/postemergence velvetleaf; assay type: in vivo, Abutilon theophrasti
How it was run: as §2

surinam grass = assay: Test B pre/postemergence surinam grass; assay type: in vivo, Brachiaria decumbens
How it was run: as §2

duck salad = assay: Test B flood test duck salad; assay type: in vivo, Heteranthera limosa
How it was run: as §1

giant foxtail = assay: Test B pre/postemergence giant foxtail; assay type: in vivo, Setaria faberii
How it was run: as §2

soybean = assay: Test B pre/postemergence soybean; assay type: in vivo, Glycine max
How it was run: as §2

wheat = assay: Test B pre/postemergence wheat; assay type: in vivo, Triticum aestivum
How it was run: as §2

cocklebur = assay: Test B pre/postemergence cocklebur; assay type: in vivo, Xanthium strumarium
How it was run: as §2

pigweed = assay: Test B pre/postemergence pigweed; assay type: in vivo, Amaranthus retroflexus
How it was run: as §2

purple nutsedge = assay: Test B pre/postemergence purple nutsedge; assay type: in vivo, Cyperus rotundus
How it was run: as §2

crabgrass = assay: Test B pre/postemergence crabgrass; assay type: in vivo, Digitaria sanguinalis
How it was run: as §2

corn = assay: Test B pre/postemergence corn; assay type: in vivo, Zea mays
How it was run: as §2

[1] = Rate 62 g/ha, headed Pre-emergence (flood test species), scale 0 to 10 (0 no effect, 10 complete control)
[2] = Rate 125 g/ha, Pre-emergence, flood test species, scale 0 to 10 where 0 is no effect and 10 is complete control
[3] = Rate 250 g/ha, Pre-emergence, flood-test species, scale 0 to 10, 0 is no effect, 10 is complete control
[4] = Rate 500 g/ha, Pre-emergence, flood test species, scale 0 to 10 (0 no effect, 10 complete control)
[5] = Preemergence, Rate 62 g/ha, scale of 0 to 10 where 0 is no effect and 10 is complete control
[6] = Preemergence, Rate 250 g/ha, scale of 0 to 10 where 0 is no effect and 10 is complete control
[7] = Preemergence, Rate 500 g/ha, scale of 0 to 10 where 0 is no effect and 10 is complete control
[8] = Rate 62 g/ha, Postemergence, scale of 0 to 10 where 0 is no effect and 10 is complete control
[9] = Rate 125 g/ha, Postemergence, scale 0 to 10
[10] = Rate 125 g/ha, Preemergence, scale of 0 to 10 where 0 is no effect and 10 is complete control
[11] = Rate 500 g/ha, Postemergence, scale 0 to 10, 0 no effect, 10 complete control

CCN(C(=O)n1oc(=O)n(C)c1=O)C1CCCCC1 [Compound 228]
Rice plant response rating (rice; [1]): 0 | Rice plant response rating (rice; [2]): 0 | Rice plant response rating (rice; [3]): 0 | Rice plant response rating (rice; [4]): 0 | Blackgrass plant response rating (blackgrass; [5]): 0 | Blackgrass plant response rating (blackgrass; [6]): 0 | Plant response rating, Blackgrass (blackgrass; [7]): 0 | Blackgrass plant response rating (blackgrass; [8]): 0 | Blackgrass plant response rating (blackgrass; [9]): 0 | Blackgrass plant response rating (blackgrass; [10]): 0 | Plant response rating (0 to 10; 0 is no effect, 10 is complete control), Blackgrass (blackgrass; Rate 250 g/ha, Postemergence): 0 | Blackgrass plant response rating (blackgrass; [11]): 0 | Bedstraw plant response rating (bedstraw; [5]): 0 | Bedstraw plant response rating (bedstraw; [6]): 0 | Plant response rating, Bedstraw (bedstraw; [7]): 0 | Bedstraw plant response rating (bedstraw; [8]): 0 | Bedstraw plant response rating (bedstraw; [9]): 0 | Bedstraw plant response rating (bedstraw; [10]): 0 | Plant response rating (0 to 10; 0 is no effect, 10 is complete control), Bedstraw (bedstraw; Rate 250 g/ha, Postemergence): 0 | Bedstraw plant response rating (bedstraw; [11]): 2 | Wild oats plant response rating (wild oat; [5]): 0 | Wild oats plant response rating (wild oat; [6]): 0 | Plant response rating, Wild oats (wild oat; [7]): 0 | Wild oats plant response rating (wild oat; [8]): 0 | Wild oats plant response rating (wild oat; [9]): 0 | Wild oats plant response rating (wild oat; [10]): 0 | Plant response rating (0 to 10; 0 is no effect, 10 is complete control), Wild oats (wild oat; Rate 250 g/ha, Postemergence): 0 | Wild oats plant response rating (wild oat; [11]): 0 | Sugarbeets plant response rating (sugar beet; [5]): 0 | Sugarbeets plant response rating (sugar beet; [6]): 0 | Plant response rating, Sugarbeets (sugar beet; [7]): 0 | Sugarbeets plant response rating (sugar beet; [8]): 0 | Sugarbeets plant response rating (sugar beet; [9]): 0 | Sugarbeets plant response rating (sugar beet; [10]): 0 | Plant response rating (0 to 10; 0 is no effect, 10 is complete control), Sugarbeets (sugar beet; Rate 250 g/ha, Postemergence): 3 | Sugarbeets plant response rating (sugar beet; [11]): 4 | Velvetleaf plant response rating (velvetleaf; [5]): 0 | Velvetleaf plant response rating (velvetleaf; [6]): 0 | Plant response rating, Velvetleaf (velvetleaf; [7]): 0 | Velvetleaf plant response rating (velvetleaf; [8]): 0 | Velvetleaf plant response rating (velvetleaf; [9]): 0 | Velvetleaf plant response rating (velvetleaf; [10]): 0 | Plant response rating (0 to 10; 0 is no effect, 10 is complete control), Velvetleaf (velvetleaf; Rate 250 g/ha, Postemergence): 0 | Velvetleaf plant response rating (velvetleaf; [11]): 0 | B. signalgrass plant response rating (surinam grass; [5]): 0 | B. signalgrass plant response rating (surinam grass; Preemergence, Rate 250 g/ha, scale 0 to 10, 0 is no effect, 10 is complete control): 0 | Plant response rating, B. signalgrass (surinam grass; [7]): 0 | B. signalgrass plant response rating (surinam grass; [8]): 0 | B. signalgrass plant response rating (surinam grass; Rate 125 g/ha, Postemergence, scale 0 (no effect) to 10 (complete control)): 0 | B. signalgrass plant response rating (surinam grass; [10]): 0 | Plant response rating (0 to 10; 0 is no effect, 10 is complete control), B. signalgrass (surinam grass; Rate 250 g/ha, Postemergence): 0 | B. signalgrass plant response rating (surinam grass; [11]): 0 | Ducksalad plant response rating (duck salad; [1]): 0 | Ducksalad plant response rating (duck salad; [2]): 0 | Ducksalad plant response rating (duck salad; [3]): 0 | Ducksalad plant response rating (duck salad; [4]): 0 | Giant foxtail plant response rating (giant foxtail; [6]): 9 | Plant response rating, Giant foxtail (giant foxtail; [7]): 9 | Giant foxtail plant response rating (giant foxtail; [8]): 0 | Giant foxtail plant response rating (giant foxtail; [9]): 0 | Giant foxtail plant response rating (giant foxtail; [10]): 6 | Plant response rating (0 to 10; 0 is no effect, 10 is complete control), Giant foxtail (giant foxtail; Rate 250 g/ha, Postemergence): 0 | Giant foxtail plant response rating (giant foxtail; [11]): 0 | Soybean plant response rating (soybean; [5]): 0 | Soybean plant response rating (soybean; [6]): 0 | Plant response rating, Soybean (soybean; [7]): 0 | Soybean plant response rating (soybean; [8]): 0 | Soybean plant response rating (soybean; [9]): 0 | Soybean plant response rating (soybean; [10]): 0 | Plant response rating (0 to 10; 0 is no effect, 10 is complete control), Soybean (soybean; Rate 250 g/ha, Postemergence): 1 | Soybean plant response rating (soybean; [11]): 1 | Wheat plant response rating (wheat; [5]): 0 | Wheat plant response rating (wheat; [6]): 0 | Plant response rating, Wheat (wheat; [7]): 0 | Wheat plant response rating (wheat; [8]): 0 | Wheat plant response rating (wheat; [9]): 0 | Wheat plant response rating (wheat; [10]): 0 | Plant response rating (0 to 10; 0 is no effect, 10 is complete control), Wheat (wheat; Rate 250 g/ha, Postemergence): 0 | Wheat plant response rating (wheat; [11]): 0 | Cocklebur plant response rating (cocklebur; [5]): 0 | Cocklebur plant response rating (cocklebur; [6]): 0 | Plant response rating, Cocklebur (cocklebur; [7]): 0 | Cocklebur plant response rating (cocklebur; [8]): 0 | Cocklebur plant response rating (cocklebur; [9]): 0 | Cocklebur plant response rating (cocklebur; [10]): 0 | Plant response rating (0 to 10; 0 is no effect, 10 is complete control), Cocklebur (cocklebur; Rate 250 g/ha, Postemergence): 0 | Cocklebur plant response rating (cocklebur; [11]): 0 | Redroot pigweed plant response rating (pigweed; [5]): 0 | Redroot pigweed plant response rating (pigweed; [6]): 0 | Plant response rating, Redroot pigweed (pigweed; [7]): 0 | Redroot pigweed plant response rating (pigweed; [8]): 0 | Redroot pigweed plant response rating (pigweed; [9]): 0 | Redroot pigweed plant response rating (pigweed; [10]): 0 | Plant response rating (0 to 10; 0 is no effect, 10 is complete control), Redroot pigweed (pigweed; Rate 250 g/ha, Postemergence): 0 | Redroot pigweed plant response rating (pigweed; [11]): 2 | Nutsedge plant response rating (purple nutsedge; [5]): 0 | Nutsedge plant response rating (purple nutsedge; [6]): 0 | Plant response rating, Nutsedge (purple nutsedge; [7]): 0 | Nutsedge plant response rating (purple nutsedge; [8]): 0 | Nutsedge plant response rating (purple nutsedge; [9]): 0 | Nutsedge plant response rating (purple nutsedge; [10]): 0 | Plant response rating (0 to 10; 0 is no effect, 10 is complete control), Nutsedge (purple nutsedge; Rate 250 g/ha, Postemergence): 0 | Nutsedge plant response rating (purple nutsedge; [11]): 0 | Crabgrass plant response rating (crabgrass; [5]): 0 | Crabgrass plant response rating (crabgrass; [6]): 1 | Plant response rating, Crabgrass (crabgrass; [7]): 2 | Crabgrass plant response rating (crabgrass; [8]): 0 | Crabgrass plant response rating (crabgrass; [9]): 0 | Crabgrass plant response rating (crabgrass; [10]): 0 | Plant response rating (0 to 10; 0 is no effect, 10 is complete control), Crabgrass (crabgrass; Rate 250 g/ha, Postemergence): 0 | Crabgrass plant response rating (crabgrass; [11]): 0 | Corn plant response rating (corn; [5]): 0 | Corn plant response rating (corn; [6]): 0 | Plant response rating, Corn (corn; [7]): 0 | Corn plant response rating (corn; [8]): 0 | Corn plant response rating (corn; [9]): 0 | Corn plant response rating (corn; [10]): 0 | Plant response rating (0 to 10; 0 is no effect, 10 is complete control), Corn (corn; Rate 250 g/ha, Postemergence): 0 | Corn plant response rating (corn; [11]): 2
